Data: patent publication US20090048328A1, “Compound Comprising Prodigiosin From Serratia Macescence B-1231 Kctc 0386Bp for Prevention and Treatment of Acute Graft-Versus-Host Disease” (priority 2005, published 2009)
“Also recorded” adds a separate entry of the source.

Key:
[1] = system: IL-2 dependent T-cells; test: IL-2-dependent T-cell proliferation (ConA pre-treated cells), [3H]-thymidine incorporation; type: cell-based, C57BL/6 mouse; details: cells pre-treated with 1 μg/ml ConA 48 hours, washed, 10 unit/ml IL-2; 3, 10, 30 ng/ml compound
Procedure: In order to measure IL-2 dependent T-cell proliferation, T-cells separated from the spleen of the mouse were treated with 1 μg/ml ConA for 48 hours. Then, the cells were washed three times to get rid of all ConA for further experiment. […] 10 unit/ml IL-2 was added to the pre-treated cells to induce T-cell proliferation (IL-2-dependent T cell proliferation).
Prodigiosin was melted in DMSO and added to the culture medium in a manner to achieve a final concentration of 3, 10, 30 ng/ml. After 60 hours of cultivation, [^3H]-thymidine was added to the culture medium with a concentration of 1 μCi/well. After 12 hours, the cells were collected and the amount of radioactivity in the DNA was measured.
In order to measure IL-2 dependent T-cell proliferation, T-cells separated from the spleen of the mouse were treated with 1 μg/ml ConA for 48 hours. Then, the cells were washed three times to get rid of all the ConA for further experiment. […] 10 unit/ml IL-2 was added to the pre-treated cells to induce T-cell proliferation (IL-2-dependent T-cell proliferation).
After 60 hours of cultivation, [^3H]-thymidine was added to the culture medium with a concentration of 1 μCi/well. After 12 hours, the cells were collected and the amount of radioactivity in the DNA was measured.

[2] = system: B-cells; test: Lipopolysaccharide-induced B-cell proliferation, [3H]-thymidine incorporation; type: cell-based, C57BL/6 mouse; details: 1 μg/ml lipopolysaccharide; 3, 10, 30 ng/ml compound
Procedure: (§1) T-cells were separated from the spleen of the C57BL/6 mouse for the experiment. 1 μg/ml concanavalin A (ConA) was used to generate the proliferation of T-cells, and 1 μg/ml lypopolysaccaride induced proliferation of the B-cells. The prodigiosin separated in Execution Example 1 was melted in dimethyl sulfoxide (DMSO) and was added to the culture medium in a manner to achieve a final concentration of 3, 10, 30 ng/ml. After 60 hours of cultivation, [^3H]-thymidine was added to the culture medium with a concentration of 1 μCi/well. After 12 hours, the cells were collected and the amount of radioactivity in the DNA was measured.

[3] = system: IL-2 mRNA; test: Expression of IL-2 mRNA in ConA-activated T-cells, RT-PCR; type: cell-based, C57BL/6 mouse; details: 1 μg/ml ConA, 4 hours, 3, 10, 30 ng/ml compound
Procedure: T-cells were separated from the spleen of the C57BL/6 mouse for the experiment. 1 μg/m ConA was used to activate the T-cells. […]. After 4 hours of cultivation, the cells were collected. After separating the RNA from the cells, the degree of expression of IL-2 mRNA was measured through RT-PCR (reverse transcription-polymerase chain reaction).

[4] = system: T-cells; test: T-cell proliferation induced by ConA plus added IL-2, [3H]-thymidine incorporation; type: cell-based, C57BL/6 mouse; details: 1 μg/ml ConA and 10 unit/ml IL-2; 3, 10, 30 ng/ml compound
Procedure: T-cells were separated from the spleen of the C57BL/6 mouse for the experiment. 1 μg/ml ConA and 10 unit/ml IL-2 were used to generate the proliferation of T-cells. In the control group, 1 μg/ml ConA induced the proliferation of T-cells. Prodigiosin was melted in DMSO and added to the culture medium in a manner to achieve a final concentration of 3, 10, 30 ng/ml. After 60 hours of cultivation, [^3H]-thymidine was added to the culture medium with a concentration of 1 μCi/well. After 12 hours, the cells were collected and the amount of radioactivity in the DNA was measured.
T-cells were separated from the spleen of the C57BL/6 mouse for the experiment. 1 μg/ml ConA and 10 unit/ml IL-2 were used to generate the proliferation of T-cells. In the control group, 1 μg/ml ConA induced the proliferation of T-cells. […] After 60 hours of cultivation, [^3H]-thymidine was added to the culture medium with a concentration of 1 μCi/well. After 12 hours, the cells were collected and the amount of radioactivity in the DNA was measured.

[5] = system: T-cells; test: ConA-induced T-cell proliferation, [3H]-thymidine incorporation; type: cell-based, C57BL/6 mouse; details: 1 μg/ml ConA; 3, 10, 30 ng/ml compound
Procedure: as §1
T-cells were separated from the spleen of the C57BL/6 mouse for the experiment. 1 μg/ml ConA and 10 unit/ml IL-2 were used to generate the proliferation of T-cells. In the control group, 1 μg/ml ConA induced the proliferation of T-cells. […] After 12 hours, the cells were collected and the amount of radioactivity in the DNA was measured.
T-cells were separated from the spleen of the C57BL/6 mouse for the experiment. […] After 12 hours, the cells were collected and the amount of radioactivity in the DNA was measured. […]
Prodigiosin was melted in DMSO and added to the culture medium in a manner to achieve a final concentration of 3, 10, 30 ng/ml. […] After 12 hours, the cells were collected and the amount of radioactivity in the DNA was measured. […]

[6] = system: acute graft-versus-host disease; type: in vivo, Balb/c mouse; details: 1 mg/kg, peritoneal injections every other day; weight loss from 2nd to 6th day, regain from 7th day; control mice lost weight up to 9th day and died
Source text: (§2) To induce acute graft-versus-host disease, bone marrow cells (5×10^7 cells) and spleen cells (1×10^7 cells) of the C57BL/6 mouse were transplanted to the Balb/c mouse, which had been irradiated and had lost immune function.

[7] = system: IL-2 receptors (IL-2R alpha); test: Expression of IL-2 receptor (IL-2R alpha) mRNA in ConA-activated T-cells, RT-PCR; type: cell-based, C57BL/6 mouse; details: 1 μg/ml ConA, 4 hours, 3, 10, 30 ng/ml compound
[8] = system: acute graft-versus-host disease; test: Mouse survival in acute graft-versus-host disease after bone marrow transplantation; type: in vivo, Balb/c mouse; details: 1 mg/kg, peritoneal injections every other day
Source text: as §2

`CCCCCC1=C/C(=C/c2[nH]c(-c3ccc[nH]3)cc2OC)N=C1C` [prodigiosin] was tested, and the “effect on IL-2-dependent T-cell proliferation” value [1] was “did not suppress the T-cell proliferation by IL-2”, the “effect on proliferation of B-cells” value [2] was “could not suppress the proliferation of B-cells” and the “effect on expression of IL-2 mRNA” value [3] was “did not influence the expression of IL-2 mRNA”. The “effect of added IL-2 on the suppression of T-cell proliferation” value [4] was “did not suppress the excessive amount of IL-2 that was added from the outside”, the “effect on proliferation of T-cells induced by ConA” value [5] was “selectively suppressed the proliferation of T-cells; also recorded: suppressed T-cells proliferated by ConA” and the “changes in weight of the mice” value [6] was “recovered normal weight by the 14th day”. The “effect on expression of IL-2 receptor mRNA” value [7] was “efficiently suppressed the expression of IL-2 mRNA”, the “Balb/c mice died six days after the cell transplantation” value ([8]; control group 50% died by day 6) was 35% and the “mice survived through to the end of the experiment” value ([8]; observed for 14 days, all control mice died by the 10th day) was 65%.
